Data published in ChEMBL document CHEMBL1201862, “PubChem BioAssay data set” (2004).
Calls of active or inactive are those of the source.

What was measured:
Vero [1] = test: cells; type: functional, cell-based; conditions: Chlorocebus sabaeus
[2] = biological target: FAD-linked sulfhydryl oxidase ALR (Homo sapiens, UniProt P55789); test: ALR-catalysed DTT oxidation blockers – biochemical, H2O2 detection, luminescence, cherry-pick, dose response (AID 493248)
Cytochrome P450 1A2 = biological target: T1, Cytochrome P450 1A2 (Homo sapiens, UniProt P05177);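 also: PubChem cytochrome P450 panel assay, CYP1A2 panel member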
T1 sequence (P05177 whole entry): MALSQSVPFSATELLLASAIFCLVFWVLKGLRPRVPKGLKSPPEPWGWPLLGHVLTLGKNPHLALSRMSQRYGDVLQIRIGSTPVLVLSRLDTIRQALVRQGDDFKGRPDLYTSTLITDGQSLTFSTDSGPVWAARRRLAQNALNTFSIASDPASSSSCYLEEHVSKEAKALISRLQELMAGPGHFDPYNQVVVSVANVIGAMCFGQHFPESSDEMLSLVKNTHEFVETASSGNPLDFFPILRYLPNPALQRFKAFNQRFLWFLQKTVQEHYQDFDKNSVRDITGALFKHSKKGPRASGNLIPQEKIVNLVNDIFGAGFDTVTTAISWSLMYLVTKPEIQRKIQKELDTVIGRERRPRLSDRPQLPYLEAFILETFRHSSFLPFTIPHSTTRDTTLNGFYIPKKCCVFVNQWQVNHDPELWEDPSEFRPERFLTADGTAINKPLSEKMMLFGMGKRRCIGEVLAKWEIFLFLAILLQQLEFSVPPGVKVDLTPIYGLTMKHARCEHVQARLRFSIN

Cytochrome P450 2D6 = Cytochrome P450 2D6 (Homo sapiens, UniProt P10635);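 also: CYP2D6 member of a cytochrome P450 panel assay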
Cytochrome P450 2D6, sequence (P10635 whole entry): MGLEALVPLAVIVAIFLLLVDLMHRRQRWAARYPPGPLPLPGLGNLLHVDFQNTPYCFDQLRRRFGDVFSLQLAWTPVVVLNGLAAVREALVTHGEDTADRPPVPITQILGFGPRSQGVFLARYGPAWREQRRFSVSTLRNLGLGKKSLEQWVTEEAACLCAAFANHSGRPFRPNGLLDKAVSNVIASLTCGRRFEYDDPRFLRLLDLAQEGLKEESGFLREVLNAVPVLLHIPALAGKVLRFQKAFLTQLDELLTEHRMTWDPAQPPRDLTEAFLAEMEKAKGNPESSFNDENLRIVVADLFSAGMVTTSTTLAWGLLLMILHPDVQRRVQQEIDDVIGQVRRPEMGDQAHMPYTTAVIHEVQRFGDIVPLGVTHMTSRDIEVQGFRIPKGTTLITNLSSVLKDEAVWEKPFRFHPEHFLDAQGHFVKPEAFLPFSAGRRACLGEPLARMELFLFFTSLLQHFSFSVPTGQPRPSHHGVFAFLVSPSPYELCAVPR

[3] = biological target: Voltage-gated inwardly rectifying potassium channel KCNH2 (Homo sapiens, UniProt Q12809); conditions: Potency;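 also: confirmatory quantitative high-throughput screen measuring inhibition of hERG channel activity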
Voltage-gated inwardly rectifying potassium channel KCNH2, sequence (Q12809 whole entry): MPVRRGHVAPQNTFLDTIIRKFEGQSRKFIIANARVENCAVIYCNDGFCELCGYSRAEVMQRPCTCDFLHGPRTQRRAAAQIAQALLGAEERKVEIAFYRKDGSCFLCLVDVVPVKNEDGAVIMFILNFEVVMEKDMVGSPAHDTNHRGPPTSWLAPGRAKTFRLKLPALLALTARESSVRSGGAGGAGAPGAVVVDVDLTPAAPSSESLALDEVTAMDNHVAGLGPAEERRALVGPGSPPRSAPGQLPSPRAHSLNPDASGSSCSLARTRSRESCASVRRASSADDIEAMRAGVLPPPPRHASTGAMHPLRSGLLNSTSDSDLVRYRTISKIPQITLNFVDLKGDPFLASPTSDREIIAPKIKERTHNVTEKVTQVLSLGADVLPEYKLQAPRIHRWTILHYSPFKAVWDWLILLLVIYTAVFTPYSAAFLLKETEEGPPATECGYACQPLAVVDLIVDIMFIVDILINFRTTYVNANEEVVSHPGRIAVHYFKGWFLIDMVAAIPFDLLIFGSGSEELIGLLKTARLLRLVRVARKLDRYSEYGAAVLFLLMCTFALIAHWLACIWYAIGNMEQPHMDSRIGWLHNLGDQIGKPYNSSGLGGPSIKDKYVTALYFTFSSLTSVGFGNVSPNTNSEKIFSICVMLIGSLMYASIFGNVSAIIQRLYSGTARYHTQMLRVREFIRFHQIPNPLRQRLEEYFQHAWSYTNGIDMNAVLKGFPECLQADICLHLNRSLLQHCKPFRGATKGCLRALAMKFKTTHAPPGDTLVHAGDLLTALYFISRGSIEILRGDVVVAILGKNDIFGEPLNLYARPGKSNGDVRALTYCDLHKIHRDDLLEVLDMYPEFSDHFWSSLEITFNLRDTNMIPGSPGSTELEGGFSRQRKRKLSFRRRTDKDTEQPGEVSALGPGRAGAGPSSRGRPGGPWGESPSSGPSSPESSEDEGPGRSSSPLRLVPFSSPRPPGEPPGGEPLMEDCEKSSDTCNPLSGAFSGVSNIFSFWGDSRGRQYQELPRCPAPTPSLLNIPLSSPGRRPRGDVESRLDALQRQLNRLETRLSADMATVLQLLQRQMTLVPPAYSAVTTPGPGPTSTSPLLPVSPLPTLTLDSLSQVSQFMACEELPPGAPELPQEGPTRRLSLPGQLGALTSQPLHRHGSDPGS

[4] = Vero E6 cell cytotoxicity, dose response, cytotoxicity control for non-replicating M. tuberculosis project, secondary assay (AID 492998); type: functional, VeroE6; conditions: Vero C1008
[5] = HepG2 cell cytotoxicity, dose response, cytotoxicity control for non-replicating M. tuberculosis project (AID 489018); type: functional; conditions: Mycobacterium tuberculosis
cells [6] = type: functional
[7] = biological target: T2, Short transient receptor potential channel 4 (Mus musculus, UniProt Q9QUQ5); test: calcium entry via TRPC4 opening agents – cell-based, HEK293 TRPC4/mu-opioid, Fluo-4 calcium, dose response (AID 434937); type: functional
T2 sequence (Q9QUQ5 whole entry): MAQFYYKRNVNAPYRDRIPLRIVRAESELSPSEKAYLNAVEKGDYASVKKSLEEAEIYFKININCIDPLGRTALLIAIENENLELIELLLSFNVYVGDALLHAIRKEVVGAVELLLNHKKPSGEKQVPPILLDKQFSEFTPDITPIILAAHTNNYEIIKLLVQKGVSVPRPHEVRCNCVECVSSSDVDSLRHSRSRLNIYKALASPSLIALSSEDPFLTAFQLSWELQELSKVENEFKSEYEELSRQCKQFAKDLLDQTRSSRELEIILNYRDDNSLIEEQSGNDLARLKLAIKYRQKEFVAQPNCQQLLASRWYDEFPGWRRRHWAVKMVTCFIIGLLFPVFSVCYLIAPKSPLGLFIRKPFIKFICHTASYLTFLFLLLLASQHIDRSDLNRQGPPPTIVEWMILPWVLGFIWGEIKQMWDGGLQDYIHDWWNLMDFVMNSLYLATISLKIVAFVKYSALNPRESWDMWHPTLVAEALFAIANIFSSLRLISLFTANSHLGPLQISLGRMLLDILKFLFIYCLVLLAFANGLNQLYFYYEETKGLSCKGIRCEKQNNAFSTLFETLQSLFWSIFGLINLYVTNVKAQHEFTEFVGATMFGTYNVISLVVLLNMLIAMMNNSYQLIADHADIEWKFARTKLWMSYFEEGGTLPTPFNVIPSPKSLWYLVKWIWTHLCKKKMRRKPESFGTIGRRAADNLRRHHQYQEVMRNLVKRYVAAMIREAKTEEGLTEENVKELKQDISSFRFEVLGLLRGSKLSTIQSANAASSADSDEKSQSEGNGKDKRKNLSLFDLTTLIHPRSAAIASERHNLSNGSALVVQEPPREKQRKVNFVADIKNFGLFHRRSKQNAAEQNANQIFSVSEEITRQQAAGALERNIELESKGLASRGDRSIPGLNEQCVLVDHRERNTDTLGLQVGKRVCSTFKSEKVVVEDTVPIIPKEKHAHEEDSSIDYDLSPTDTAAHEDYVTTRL

[8] = THP-1 cell cytotoxicity, dose response, cytotoxicity control for non-replicating M. tuberculosis project (AID 489025); type: functional
[9] = microbe, parasite or virus in culture; type: functional; conditions: Mycobacterium tuberculosis
[10] = P. falciparum Dd2 growth inhibitors, dose response, SYBR Green, cherry-picked samples (AID 1159567); type: functional, cell-based
[11] = Dd2 malaria parasite growth inhibition potency – SYBR Green, dry powder samples, dose response (AID 1159566); type: functional, cell-based;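 also: potency for growth inhibition with lower SYBR green DNA signal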
[12] = growth inhibition of PfATP4-mutant resistant parasites – NITD609-resistant line, SYBR Green, dry powder, dose response (AID 1159571); type: functional, cell-based;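 also: parasites synchronized at ring stage by sorbitol before testing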
[13] = toxicity to human hepatoma HepG2 cells – cell-based, cherry-picked samples, cytotoxicity control, dose response (AID 1159577); type: functional
[14] = growth inhibition of yeast DHODH-expressing 3D7 parasites – SYBR Green, dry powder samples, dose response (AID 1159570); type: functional, cell-based;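 also: parasite growth measured after 72 hours of compound exposure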
[15] = A Cell Based Secondary Assay To Explore Cytotoxicity of Compounds that Sensitize Mycobacterium Tuberculosis to Beta-Lactam Antibiotics.; type: functional
Cytochrome P450 3A4 = Cytochrome P450 3A4 (Homo sapiens, UniProt P08684); conditions: Potency;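 also: confirmatory qHTS run detecting inhibitors and substrates of CYP3A4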
Cytochrome P450 3A4, sequence (P08684 whole entry): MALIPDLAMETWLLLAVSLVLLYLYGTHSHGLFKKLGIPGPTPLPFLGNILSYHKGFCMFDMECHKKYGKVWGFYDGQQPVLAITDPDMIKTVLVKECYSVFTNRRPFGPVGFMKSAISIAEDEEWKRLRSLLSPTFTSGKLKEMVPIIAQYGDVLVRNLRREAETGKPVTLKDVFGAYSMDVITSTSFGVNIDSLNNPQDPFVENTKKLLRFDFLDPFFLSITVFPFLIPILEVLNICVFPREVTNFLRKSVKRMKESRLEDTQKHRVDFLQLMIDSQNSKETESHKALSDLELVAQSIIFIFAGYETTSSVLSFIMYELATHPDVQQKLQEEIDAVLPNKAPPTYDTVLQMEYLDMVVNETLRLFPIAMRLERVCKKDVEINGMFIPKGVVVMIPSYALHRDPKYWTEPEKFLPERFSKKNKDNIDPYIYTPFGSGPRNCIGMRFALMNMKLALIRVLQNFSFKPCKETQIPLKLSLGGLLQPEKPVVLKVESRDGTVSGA

[16] = biological target: Peroxisome proliferator-activated receptor gamma/Nuclear receptor coactivator 3 (Homo sapiens, UniProt P37231); test: (§1) TR-FRET dose response biochemical High Throughput Screening assay for agonists of the steroid receptor coactivator 3 (SRC-3) recruitment by the peroxisome proliferator-activated receptor gamma (PPAR gamma): non-selective agonists. [Related pubchem assays: 1301 (Confirmation screen.), 1048 (Primary screen.)]; type: functional
Peroxisome proliferator-activated receptor gamma/Nuclear receptor coactivator 3, sequence (P37231 whole entry): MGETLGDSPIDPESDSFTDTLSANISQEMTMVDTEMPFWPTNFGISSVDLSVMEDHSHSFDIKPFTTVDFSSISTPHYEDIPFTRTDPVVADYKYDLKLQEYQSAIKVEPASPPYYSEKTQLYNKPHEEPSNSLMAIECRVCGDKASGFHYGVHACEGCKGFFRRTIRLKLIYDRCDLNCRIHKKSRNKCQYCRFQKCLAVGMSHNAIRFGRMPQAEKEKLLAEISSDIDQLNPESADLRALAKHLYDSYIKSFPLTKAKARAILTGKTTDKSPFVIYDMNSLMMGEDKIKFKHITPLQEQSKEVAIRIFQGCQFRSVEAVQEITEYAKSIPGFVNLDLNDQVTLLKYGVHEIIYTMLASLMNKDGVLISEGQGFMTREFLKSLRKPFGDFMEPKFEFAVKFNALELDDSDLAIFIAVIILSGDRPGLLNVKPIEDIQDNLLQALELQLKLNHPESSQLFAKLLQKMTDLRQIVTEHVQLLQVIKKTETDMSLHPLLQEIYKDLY
Peroxisome proliferator-activated receptor gamma/Nuclear receptor coactivator 3, sequence (Q9Y6Q9 whole entry, further chain): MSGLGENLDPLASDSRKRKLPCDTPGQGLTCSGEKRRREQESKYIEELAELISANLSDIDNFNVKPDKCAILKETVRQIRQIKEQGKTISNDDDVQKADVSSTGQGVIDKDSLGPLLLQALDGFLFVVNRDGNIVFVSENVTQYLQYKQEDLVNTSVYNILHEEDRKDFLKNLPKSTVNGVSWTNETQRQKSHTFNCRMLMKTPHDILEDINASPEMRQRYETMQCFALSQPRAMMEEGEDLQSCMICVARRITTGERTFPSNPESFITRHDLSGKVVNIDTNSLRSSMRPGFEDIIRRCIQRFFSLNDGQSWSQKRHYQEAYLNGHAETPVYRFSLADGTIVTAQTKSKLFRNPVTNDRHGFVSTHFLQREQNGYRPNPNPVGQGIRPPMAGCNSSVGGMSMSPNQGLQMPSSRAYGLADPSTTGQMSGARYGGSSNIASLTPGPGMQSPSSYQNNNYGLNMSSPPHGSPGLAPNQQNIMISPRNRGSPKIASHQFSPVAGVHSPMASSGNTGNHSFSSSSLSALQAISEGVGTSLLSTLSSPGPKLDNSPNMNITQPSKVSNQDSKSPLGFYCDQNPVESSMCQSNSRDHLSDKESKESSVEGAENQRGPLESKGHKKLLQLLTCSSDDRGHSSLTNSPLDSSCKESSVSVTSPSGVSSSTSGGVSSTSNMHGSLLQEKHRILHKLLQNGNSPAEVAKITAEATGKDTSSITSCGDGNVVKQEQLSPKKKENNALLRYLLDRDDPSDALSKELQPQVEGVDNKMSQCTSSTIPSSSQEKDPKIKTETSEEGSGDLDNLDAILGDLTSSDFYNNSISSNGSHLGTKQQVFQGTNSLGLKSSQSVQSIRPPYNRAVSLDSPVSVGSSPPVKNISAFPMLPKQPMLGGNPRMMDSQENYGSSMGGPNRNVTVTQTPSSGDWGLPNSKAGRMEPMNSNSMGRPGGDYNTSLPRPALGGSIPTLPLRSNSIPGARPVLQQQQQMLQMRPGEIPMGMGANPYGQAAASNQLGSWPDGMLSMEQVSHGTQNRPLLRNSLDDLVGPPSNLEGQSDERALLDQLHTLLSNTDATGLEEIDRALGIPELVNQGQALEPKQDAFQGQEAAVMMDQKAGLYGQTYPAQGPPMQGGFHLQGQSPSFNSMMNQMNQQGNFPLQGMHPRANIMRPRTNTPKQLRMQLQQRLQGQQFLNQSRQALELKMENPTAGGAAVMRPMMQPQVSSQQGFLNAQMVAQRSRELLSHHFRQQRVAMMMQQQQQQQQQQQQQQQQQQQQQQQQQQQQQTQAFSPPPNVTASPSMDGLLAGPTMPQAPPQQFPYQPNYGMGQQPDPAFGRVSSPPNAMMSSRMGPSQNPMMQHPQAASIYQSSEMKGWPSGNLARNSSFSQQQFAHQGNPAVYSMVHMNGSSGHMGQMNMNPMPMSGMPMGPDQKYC

[17] = biological target: Peroxisome proliferator-activated receptor gamma/Nuclear receptor coactivator 1 (Homo sapiens, UniProt P37231); test: as §1, with “1 (SRC-1)” for “3 (SRC-3)”, “assays (depositor defined):AID1300, AID1808, AID504735, AID631]” for “assays: 1301 (Confirmation screen.), 1048 (Primary screen.)]”; type: protein assay
[18] = biological target: Peroxisome proliferator-activated receptor gamma/Nuclear receptor coactivator 2 (Homo sapiens, UniProt P37231); test: TR-FRET dose response biochemical High Throughput Screening assay for agonists of the steroid receptor coactivator 2 (SRC-2) recruitment by the peroxisome proliferator-activated receptor gamma (PPAR gamma): non-selective agonists. [Related pubchem assays: 1297, 1032 ]; type: functional
[19] = viability of uninfected HEp-2 cells – cell-based, HTS, cytotoxicity control for RSV inhibitor project, dose response (AID 2410); type: functional; conditions: human respiratory syncytial virus
[20] = DRD fibroblast viability loss – cell-based, non-viral oncogenic, luminescence, dose response (AID 1934); type: functional; conditions: Homo sapiens
BJ [21] = test: BJ-TERT fibroblast viability loss – cell-based, RAS-independent, luminescence, dose response (AID 1933); type: functional; conditions: Homo sapiens
BJ [22] = test: BJ-TERT-LT-ST fibroblast viability loss – cell-based, RAS-independent, luminescence, dose response (AID 1935); type: functional; conditions: Homo sapiens;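 also: BJ fibroblasts immortalized with TERT plus LT and ST oncogenes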
cells [23] = test: cells
BJ [24] = test: cells; type: functional, cell-based; conditions: Homo sapiens
Vero [25] = test: cells; type: functional; conditions: Chlorocebus sabaeus
HT-1080 = test: HT1080 cell viability loss – fluorescence readout (AID 620); type: functional, cell-based; conditions: Homo sapiens
[26] = biological target: Luciferin 4-monooxygenase (Photinus pyralis, UniProt P08659); test: Counter Screen for Luciferase-based Assay Positives. [Related pubchem assays: 620, 618, 411 ]
Luciferin 4-monooxygenase, sequence (P08659 whole entry): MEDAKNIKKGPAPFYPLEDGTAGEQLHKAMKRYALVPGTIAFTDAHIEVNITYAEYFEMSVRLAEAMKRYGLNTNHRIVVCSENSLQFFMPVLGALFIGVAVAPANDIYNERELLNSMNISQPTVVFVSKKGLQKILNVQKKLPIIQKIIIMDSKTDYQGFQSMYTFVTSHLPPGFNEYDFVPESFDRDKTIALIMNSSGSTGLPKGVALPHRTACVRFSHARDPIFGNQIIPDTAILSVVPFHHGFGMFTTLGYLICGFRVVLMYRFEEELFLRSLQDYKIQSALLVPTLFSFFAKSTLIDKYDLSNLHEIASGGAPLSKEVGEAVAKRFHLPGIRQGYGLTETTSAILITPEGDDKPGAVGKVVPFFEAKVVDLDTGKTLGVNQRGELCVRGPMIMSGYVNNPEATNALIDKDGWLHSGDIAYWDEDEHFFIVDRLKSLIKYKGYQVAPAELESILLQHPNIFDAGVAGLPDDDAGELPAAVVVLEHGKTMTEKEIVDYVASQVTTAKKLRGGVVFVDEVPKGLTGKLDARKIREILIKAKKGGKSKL

[27] = decrease of insulin promoter-GFP reporter – imaging, high-content screening, mouse beta cells (AID 1628); type: functional; conditions: MIN6
[28] = MIN6 cell viability loss – mouse insulinoma, cytotoxicity control, dose response (AID 2122); type: functional;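 also: confirmatory high-throughput counterscreen run to flag cytotoxic compounds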
[29] = viability of PTEN-deleted HCT116 cells – cell-based, HCT116 PTEN knockout, dose response (AID 1047); type: functional;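 also: HCT116 colon tumor cells with PTEN knocked out; cells exposed to compound for 60 hours before readout; potency for loss of cell viability measured by luminescence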
[30] = viability of HCT116 lacking mutant beta-catenin – cell-based, human colon tumor, dose response (AID 1045); type: functional;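 also: HCT116 colon tumor cells with beta catenin knocked out; cells exposed to compound for 60 hours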
[31] = NIH3T3 cell viability loss – ATP luminescence, mouse fibroblasts, counter-screen, dose response (AID 2010); type: functional, cell-based;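 also: cells exposed to compound for about 90 hours before reading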
[32] = Trypanosoma cruzi growth suppression in host cells – NIH3T3 host cells, beta-gal luminescence, confirmation (AID 2044); type: functional, cell-based;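 also: intracellular parasites grown in NIH/3T3 mouse fibroblasts as host cells; luminescent beta-galactosidase reporter signal from transgenic T. cruzi replicating inside host cells; inhibitors lower the luminescence signal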

FAD-linked sulfhydryl oxidase ALR, sequence (P55789 whole entry): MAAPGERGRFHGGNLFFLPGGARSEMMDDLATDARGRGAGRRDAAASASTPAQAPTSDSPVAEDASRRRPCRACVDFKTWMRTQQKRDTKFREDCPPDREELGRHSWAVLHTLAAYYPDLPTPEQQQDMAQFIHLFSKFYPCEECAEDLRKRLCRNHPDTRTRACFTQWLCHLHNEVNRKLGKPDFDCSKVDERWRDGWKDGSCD

CCCN1C(=O)c2ccccc2NC1c1ccc(OC)cc1O (configuration not stated)
IC50 (Vero [1]): 24.1 µM (active) | AC50 [2]: 12.2 µM (active)

NNC(=O)c1ccncc1 [ISONIAZID]
AC50 (Cytochrome P450 1A2): 6.31 µM (inconclusive) | AC50 (Cytochrome P450 2D6): 12.6 µM (inconclusive) | AC50 [3]: 35.5 µM (inconclusive)

O=C(CCC1CCCC1)c1c(O)c2ccccc2oc1=O
CC50 [4]: 14.4 µM (active) | CC50 [5]: > 20 µM (active) | IC50 (cells [6]): 8.45 µM (active) | EC50 [7]: 5.96 µM (active) | CC50 [8]: 23.5 µM (active) | CC50 [9]: 15.4 µM (active)

COc1ccc2c3c([nH]c2c1)[C@@H](CO)N(Cc1ccccc1)CC31CCN(Cc2cncnc2)CC1
AC50 [10]: 2.12 µM (active) | AC50 [11]: 0.929 µM (active) | AC50 [12]: 0.871 µM (active) | AC50 [13]: > 39 µM (inactive) | AC50 [14]: 1.27 µM (active)

Cc1ccc(CN2C(=O)N/C(=C\c3ccc(-c4ccc(C(=O)O)cc4C)o3)C2=O)cc1
CC50 [15]: > 40 µM (active)

CN(C)c1ccc(C2(c3ccc(N(C)C)cc3)OC(=O)c3cc(N(C)C)ccc32)cc1
AC50 [3]: 0.251 µM (inconclusive) | AC50 (Cytochrome P450 3A4): 7.94 µM (inconclusive)

O=C(CSc1ncnc2c1oc1ccccc12)OCc1ccccc1
EC50 [16]: > 79.4 µM (not active) | EC50 [17]: > 2.94 µM (inactive) | EC50 [18]: > 8.82 µM (not active)

Cc1cccc(-n2c(SCC(=O)Nc3ncc(Cl)cc3Cl)nc3ccccc32)c1
CC50 [19]: 2.36 µM (active) | EC50 [20]: 94.2 µM (active) | EC50 (BJ [21]): 33.7 µM (active) | EC50 (BJ [22]): > 150 µM (not active) | IC50 (Vero [1]): 0.56 µM (active) | IC50 (cells [23]): 1.26 µM (active) | EC50 (BJ [24]): 50.5 µM (inconclusive) | CC50 (Vero [25]): > 25 µM (active)

CCCCc1ccc(-c2nc(-c3ccncc3)no2)cc1
EC50 (HT-1080): > 50 µM (not active) | EC50 [26]: 60.6 µM (active)

O=C(c1ccc2c(c1)N(Cc1cccc(Cl)c1)C(=O)c1ccccc1S2(=O)=O)N1CCN(c2ccccn2)CC1
IC50 (Vero [1]): 10.1 µM (active) | CC50 (Vero [25]): > 25 µM (active)

CN1CCN(c2ccccc2NC(=O)c2cccc(OCc3ccccc3)c2)CC1
IC50 [27]: 4.3 µM (active) | IC50 [28]: 4.17 µM (active)

Clc1cccc2c1Sc1ccccc1CC2N1CCNCC1 (configuration not stated)
CC50 [4]: 9.77 µM (active) | CC50 [5]: 7.37 µM (active) | IC50 (cells [6]): 11.5 µM (active) | CC50 [8]: 8.49 µM (active) | EC50 [29]: 7.22 µM (active) | EC50 [30]: 7.41 µM (active)

CCOc1ccc(/N=c2\cc(-c3ccc(OC)cc3)oc3ccccc23)cc1
EC50 [31]: > 60 µM (not active) | EC50 [32]: 2.64 µM (active) | EC50 [29]: 47.5 µM (active) | CC50 [15]: > 40 µM (active) | EC50 [30]: 60.6 µM (active)
